According to article PMC12373846, “Hemoglobin as a pseudoperoxidase and drug target for oxidative stress-related diseases” (Signal Transduction and Targeted Therapy, 2025):

Tests used:
[1] = system: CIA DBA1 mice; test: CIA mouse model of rheumatoid arthritis; assay type: in vivo; parameters: matrix, toluidine blue (Fig. S20m) / surface regularity, toluidine blue (Fig. S20n) / CIA score at day 42 (Fig. S20c) / area under the curve (AUC) of symptom severity (Fig. S20e): scale not given here; cartilage thickness, toluidine blue (Fig. S20o): unit not given here
Method: CIA was induced in DBA1 mice by intradermal injection of type II collagen emulsified in Complete Freund's Adjuvant (CFA) on day 0, followed by a booster injection of type II collagen in Incomplete Freund's Adjuvant (IFA) on day 21. Starting from day 23, mice were administered KDS12025 in drinking ad libitum at doses of 0, 0.1, or 1 mg/kg/day until day 42. To assess joint inflammation and cartilage thickness in CIA mice, joint samples were collected and fixed in 10% formalin. The samples were then decalcified, embedded in paraffin, and sectioned. For histological evaluation, sections were stained with H&E to assess inflammation and with Toluidine Blue to evaluate cartilage thickness. The stained sections were examined under a light microscope, and images were captured for quantitative analysis of inflammatory cell infiltration and cartilage integrity.

[2] = molecular target: T1, RIOK2 (Homo sapiens, UniProt Q9BVS4); test: KINOMEscan; assay type: binding; details: 10000 nM; read-out: Percent Control
T1 construct: purchased DiscoverX KINOMEscan scanEDGE; Eurofins Cerep SafetyScreen87
Method: The possibility of KDS12025 on kinase off-target, the KINOMEscan panel of scanEDGE assay was conducted in DiscoverX (CA, USA) using a site-directed competition binding with the test compounds. The assay results are given in Supplementary Table 4 and experimental information is available on the DiscoverX web page (www.discoverx.com). Moreover, the Delta SafetyScreen87 panel assay was conducted in Eurofins Discovery (Cerep, France). The assay results are given in Supplementary Table 5 and experimental information is available on the DiscoverX web page (https://www.eurofinsdiscoveryservices.com).

[3] = system: APP/PS1 mice; test: Novel place recognition test, APP/PS1 mice; assay type: in vivo, mouse
Method: For an animal model of AD, both sexes of 10- to 18-month-old APP/PS1 mice were maintained and used as previously described.[76],[77] To test the effects of novel H2O2-decomposing enhancers in the AD model, the mice were treated by i.p. injection with KDS12008 (3 mg/kg/day), KDS12017 (3 mg/kg/day), or KDS12025 (3 or 10 mg/kg/day) once per day for 1 or 2 weeks, depending on the experimental protocol. All drugs were dissolved in 200 μl of saline, and the amount of each drug was calculated on the basis of the weight (kg) of the mouse. Moreover, KDS12025 (3 mg/kg/day) was orally administered to the AD model for 2 weeks ad libitum.
Before the novel place recognition (NPR) test, the mice were subjected to sufficient handling and were concurrently habituated to an open field test (OFT) in a square chamber (40 × 40 × 40 cm). After habituation, the mice were placed in the open field with two identical objects positioned in the first and second quadrants of the cage. The mice were allowed to explore the objects freely for 10 min and then returned to their home cages for 1 h. To test spatial recognition memory, one of the two identical objects was placed in a novel place (quadrant), and the mice were re-entered into the open field chamber for 10 min. The discrimination index (DI) was calculated as the percentage of time spent on the novel place over the total time spent on both the novel and the familiar place. Frequencies were quantified via EthoVision XT software (Noldus, Netherlands).
The mice were deeply anesthetized with vaporized 1% isoflurane and placed into stereotaxic frames (RWD Life Science, China). Following an incision on the midline of the scalp, a hole was drilled into the skull above the hippocampus. AAV-GFAP104-GFP or AAV-GFAP104-DTR-GFP was bilaterally microinjected into the hippocampal CA1 region (AP, −2.0 mm; ML, ±1.5 mm; DV, −1.65 mm from the bregma). Diphtheria toxin (2 mg/ml) was administered for 16 days as previously described.[77] For shRNA knockdown, AAV-pSicoR-Hbβ-shRNA-mCherry or AAV-pSicoR-Sc-shRNA-mCherry was microinjected into the same coordinate system. A total of 0.8 µl of the virus was injected via a syringe pump (KD Scientific, USA). The injection procedures were implemented before 5 weeks of the experiments. For cell type-specific knockdown, AAV-pSico-Hbβ-shRNA-GFP or AAV-pSico-Sc-shRNA-GFP was combined with either AAV-CaMKII-Cre-mCherry for neuronal targeting or AAV-GFAP-Cre-mCherry for astrocyte targeting. The viruses were bilaterally injected into the hippocampus and substantia nigra via the same stereotaxic coordinates and injection procedures. All viruses used in this study were produced at the Institute for Basic Science virus facility (IBS virus facility, Korea). To investigate the effects of 0.1 mg/kg/day KDS12025, GiD mice were injected with diphtheria toxin (2 mg/ml) daily for 16 days. Concurrently, KDS12025 was administered ad libitum (0.1 mg/kg/day) during the same period.

[4] = system: GiD mice; test: Novel place recognition test, GiD mice; assay type: in vivo, mouse; details: GiD+KDS12025 0.1mpk ad libitum, Fig. S11e
[5] = system: C57BL/6J mice; test: Arterial blood P50 and Hb concentration; assay type: in vivo, mouse; details: 0.1, 1 or 10 mg/kg, 24 h
Method: The mice were placed in a supine position to expose the thoracic area. The mice were anesthetized with 2.5% sevoflurane and placed in the supine position. Mechanical ventilation was provided via a custom-made face mask connected to a ventilator (Ventstar small animal ventilator R415, RWD) set to deliver room air (FiO2 = 0.21), with a respiratory rate of 180 breaths per min and a tidal volume of 10 μl/g body weight. Without a surgical incision, a 1 ml syringe was directly inserted into the heart to collect bright red arterial blood. Care was taken to avoid venous sampling, and blood was passively drawn into the syringe under physiological arterial pressure. The collected arterial blood was immediately analyzed via an i-STAT® 1 Analyzer (Abbott) with CG8+ cartridges to measure pO2 (mmHg), SO2 (%), and hemoglobin concentrations (g/dL). P₅₀ values were calculated via the following equation: P50=pO2×1−SO2/SO2^1/n, n=2.711

T1 sequence (Q9BVS4 whole entry): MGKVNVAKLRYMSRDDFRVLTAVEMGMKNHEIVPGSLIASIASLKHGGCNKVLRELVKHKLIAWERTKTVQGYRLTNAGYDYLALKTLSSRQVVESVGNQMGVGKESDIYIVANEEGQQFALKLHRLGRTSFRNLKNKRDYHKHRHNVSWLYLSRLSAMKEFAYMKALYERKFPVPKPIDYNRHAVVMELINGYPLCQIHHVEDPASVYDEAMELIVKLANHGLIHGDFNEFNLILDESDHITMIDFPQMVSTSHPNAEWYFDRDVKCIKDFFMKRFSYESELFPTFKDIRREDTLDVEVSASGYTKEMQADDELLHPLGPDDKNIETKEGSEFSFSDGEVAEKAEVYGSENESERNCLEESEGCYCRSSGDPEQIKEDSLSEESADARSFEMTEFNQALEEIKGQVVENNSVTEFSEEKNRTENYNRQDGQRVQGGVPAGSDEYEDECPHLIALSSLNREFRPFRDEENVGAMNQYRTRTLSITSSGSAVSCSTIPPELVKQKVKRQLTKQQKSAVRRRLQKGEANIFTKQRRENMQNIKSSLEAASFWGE

CNc1ccc(NCCc2ccccc2OC)cc1.Cl [KDS12025, N^1-(2-methoxyphenethyl)-N^4-methylbenzene-1,4-diamine hydrochloride salt]
CIA score at day 42 (Fig. S20c) ([1]; 0.1 MPK): 9.5±1.133 | area under the curve (AUC) of symptom severity (Fig. S20e) ([1]; 0.1 MPK): 54.17±15.02 | body weight difference (Fig. S20p) ([1]; 0.1 MPK): 93±0.5% | bone erosion, H&E (Fig. S20k) ([1]; 0.1 MPK): 0.852±0.3905 | cartilage destruction, H&E (Fig. S20i) ([1]; 0.1 MPK): 1.5±0.2949 | cartilage thickness, toluidine blue (Fig. S20o) ([1]; 0.1 MPK): 0.85±0.2018 | matrix, toluidine blue (Fig. S20m) ([1]; 0.1 MPK): 1.504±0.3303 | pannus formation, H&E (Fig. S20j) ([1]; 0.1 MPK): 0.9±0.3929 | paw volume (Fig. S20f) ([1]; 0.1 MPK): 0.1383 ± 0.0074 mL | surface regularity, toluidine blue (Fig. S20n) ([1]; 0.1 MPK): 1.352±0.3083 | synovial hyperplasia, H&E (Fig. S20h) ([1]; 0.1 MPK): 1.338±0.2985 | CIA score at day 42 (Fig. S20c) ([1]; 1 MPK): 6.583±0.7002 | area under the curve (AUC) of symptom severity (Fig. S20e) ([1]; 1 MPK): 25.0±9.129 | body weight difference (Fig. S20p) ([1]; 1 MPK): 100.7±0.4% | bone erosion, H&E (Fig. S20k) ([1]; 1 MPK): 0.338±0.2928 | cartilage destruction, H&E (Fig. S20i) ([1]; 1 MPK): 0.966±0.2183 | cartilage thickness, toluidine blue (Fig. S20o) ([1]; 1 MPK): 0.652±0.1825 | matrix, toluidine blue (Fig. S20m) ([1]; 1 MPK): 0.988±0.2547 | pannus formation, H&E (Fig. S20j) ([1]; 1 MPK): 0.338±0.2928 | paw volume (Fig. S20f) ([1]; 1 MPK): 0.1183 ± 0.0047 mL | surface regularity, toluidine blue (Fig. S20n) ([1]; 1 MPK): 0.95±0.2009 | synovial hyperplasia, H&E (Fig. S20h) ([1]; 1 MPK): 0.7620±0.3263 | remaining binding at 10 µM [2]: 98% | NPR discrimination index ([3]; APP+KDS12025 3 mg/kg/day ad libitum, Fig. 5n): WT (0.2560±0.07604, n=6), APP (-0.0956±0.05233, n=5), APP+KDS12025 (ad libitum) (0.2057±0.04843, n=6) One-way ANOVA with Tukey's multiple comparisons test, F(2,14) = 8.997, p = 0.003 WT vs. APP, p = 0.004; WT vs. APP+KDS12025 (ad libitum), p = 0.82; APP vs. APP+KDS12025 (ad libitum), p = 0.01 | NPR discrimination index ([3]; APP+ScRNA+KDS12025, Fig. 6g): 0.46±0.09 | NPR discrimination index ([3]; APP+shHbβ+KDS12025, Fig. 6g): -0.06±0.082 | NPR discrimination index ([3]; APP+shHbβ::CaMKII+KDS12025, Fig. 6l): 0.24±0.08 | NPR discrimination index ([3]; APP+shHbβ::GFAP+KDS12025, Fig. 6l): -0.04±0.059 | NPR discrimination index [4]: WT (0.2256±0.0275, n=3), GiD (-0.02438±0.07989, n=3), GiD+KDS12025 (0.1mpk) (0.2255±0.02347, n=4) One-way ANOVA with Tukey's multiple comparisons test, F(2,7) = 9.285, p = 0.01 WT vs. GiD, p = 0.02; WT vs. GiD+KDS12025 (0.1mpk), p > 0.99; GiD vs. GiD+KDS12025 (0.1mpk), p = 0.01 | arterial oxygen affinity (P50) vs vehicle [5]: did not differ | total Hb concentration in the blood [5]: unaffected
